Test results: paper PMC10331583, “Control of fibrosis with enhanced safety via asymmetric inhibition of prolyl‐tRNA synthetase 1” (EMBO Molecular Medicine, 2023)
“And” between values parts separate entries of the source, which are not always exact repeats. Identical values can stand only once.

Tests used:
[1] = CellTiter‐Glo assay, screen of HF derivatives; format: cell-based; details: human, NHLF cells
Description: After 24 h, the cells were incubated with various concentrations of compounds for 48 h. The level of ATP as a measure of cell viability was determined using a CellTiter‐Glo® luminescent cell viability assay kit (Promega, G7571) following the manufacturer's instructions.

[2] = test system: C57BL/6 mice; assay: Bleomycin‐induced lung fibrosis, therapeutic model 2 (compounds from 2 weeks after bleomycin); format: in vivo; details: model 2, drug administration from day 14
Description: To examine therapeutic efficacy of DWN12088, all experiments were conducted following the international guidelines on the ethical use of experimental animals and approved by the Institutional Animal Care and Use Committee of Daewoong Pharmaceutical (IACUC‐21‐014). C57BL/6 mice (7–8‐week‐old, male, obtained from Orient Bio) were anesthetized with Zoletil and injected intratracheally with 100 μl bleomycin (2 units/kg) (Merck, B8416) to induce lung fibrosis. A group of disease‐free mice (“untreated”) were injected with PBS instead of bleomycin. After a week, mice treated with bleomycin were randomized to (i) vehicle (saline), (ii) HF 0.05 mg/kg, (iii) HF 0.1 mg/kg, and (iv) DWN12088 10 mg/kg groups (n = 5 for each group) according to their body weight. The drugs were orally administered once daily for 2 weeks, and then the outcome was analyzed. For the experiments testing the effect of the compounds 2 weeks after bleomycin challenge, the experiment was approved by IACUC of Daewoong Pharmaceutical (IACUC‐22‐009). […]
The collagen contents of lung tissues were measured using Sircol™ soluble collagen assay (Biocolor Ltd., S1000) following the manufacturer's instructions. […] Tissue extracts were incubated with Sirius red dye, and the absorbance was determined at 540 nm using a spectrophotometer. […]

[3] = target: T1, PARS1 F1097A/E1123A/R1152L (FA/EA/RL) mutant (Homo sapiens, UniProt P07814, E1123A/F1097A/R1152L); assay: Microscale thermophoresis (MST), PARS1 mutant; format: binding; details: for Fraction bound: single replicates
T1 construct: His‐PARS1 (1001–1,512 aa); made in house; host or cells: Escherichia coli
T1 sequence (P07814 1001-1512 F1097A/E1123A/R1152L): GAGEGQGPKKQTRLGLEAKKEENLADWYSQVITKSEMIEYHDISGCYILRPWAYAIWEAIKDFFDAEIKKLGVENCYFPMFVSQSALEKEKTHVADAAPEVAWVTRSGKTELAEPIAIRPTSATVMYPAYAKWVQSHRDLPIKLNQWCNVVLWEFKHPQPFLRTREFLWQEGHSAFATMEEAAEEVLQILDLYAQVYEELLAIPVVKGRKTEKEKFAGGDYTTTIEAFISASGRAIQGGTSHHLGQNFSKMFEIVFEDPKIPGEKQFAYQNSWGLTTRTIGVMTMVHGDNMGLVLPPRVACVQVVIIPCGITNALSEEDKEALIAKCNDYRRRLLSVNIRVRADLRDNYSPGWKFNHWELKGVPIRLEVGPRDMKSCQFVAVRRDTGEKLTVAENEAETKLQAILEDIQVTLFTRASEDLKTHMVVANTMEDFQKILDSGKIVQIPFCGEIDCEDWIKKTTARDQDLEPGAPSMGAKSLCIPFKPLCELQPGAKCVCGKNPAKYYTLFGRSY

[4] = test system: phosphorylation of SMAD2; assay: Phosphorylation of SMAD2 (TGF‐β pathway), immunoblot; format: cell-based, human; details: 15 h; for Relative ratio of p-SMAD2/SMAD2, average / Relative ratio of p-SMAD2/SMAD2: + TGF-β; for Relative ratio of p-SMAD2/SMAD2: single experiments
Description: The levels of proteins were determined by immunoblot assay. […] The lowest concentration at which protein levels started to decrease was normalized by IC50 values for collagen level and used as the y‐axis value. […] The slope and R^2 value were calculated using GraphPad Prism 7.0. […] The activation of the TGF‐β pathway was determined by monitoring the phosphorylation of SMAD2. Immunoblot images are representative of three biologically independent experiments. • The band intensities of the immunoblot images in (C) were quantified using ImageJ (n = 3; One‐way ANOVA; *P < 0.05, **P < 0.01, ***P < 0.001; mean ± SEM). Source data are available online for this figure.

[5] = test system: WI‐26 VA4 cells stably expressing PARS1 FA/EA/RL mutant; assay: Collagen ELISA in cells stably expressing PARS1 mutant; details: for Collagen level, average: average of 4 experiments; for Collagen level, single replicates: replicates of Experiments #1-#4
[6] = WI-26 VA4 Flag-PARS1 FA/EA/RL, 30 nM
[7] = WI-26 VA4 Flag-PARS1 FA/EA/RL, 100 nM
[8] = WI-26 VA4 Flag-PARS1 FA/EA/RL, 300 nM
[9] = WI-26 VA4 Flag-PARS1 FA/EA/RL, 1000 nM
[10] = WI-26 VA4 Flag-PARS1 FA/EA/RL, 3000 nM
[11] = WI-26 VA4 Flag-PARS1 FA/EA/RL, 10000 nM
[12] = WI-26 VA4 Flag-PARS1 FA/EA/RL, 30000 nM
[13] = WI-26 VA4 Flag-PARS1 FA/EA/RL, 100000 nM
[14] = WI-26 VA4 Flag-PARS1 FA/EA/RL, 300000 nM

O[C@H]1CCCN[C@@H]1CCCn1cnc2c(Cl)c(Cl)ccc21 [DWN12088]
CC50 at 48 h [1]: > 100 µM | fibrotic properties [2]: less apparent | Fraction bound, average ([3]; Dose 30.5176 nM): -0.2196 | Fraction bound ([3]; Dose 30.5176 nM): -0.0531 and -0.3613 and -0.2444 | Fraction bound, average ([3]; Dose 61.0352 nM): -0.1437 | Fraction bound ([3]; Dose 61.0352 nM): -0.0707 and -0.1506 and -0.2099 | Fraction bound, average ([3]; Dose 122.07 nM): 0.0563 | Fraction bound ([3]; Dose 122.07 nM): 0.1029 and 0.0530 and 0.0131 | Fraction bound, average ([3]; Dose 244.141 nM): 0.2244 | Fraction bound ([3]; Dose 244.141 nM): 0.3322 and 0.1837 and 0.1572 | Fraction bound, average ([3]; Dose 488.281 nM): -0.0768 | Fraction bound ([3]; Dose 488.281 nM): -0.1204 and -0.1742 and 0.0641 | Fraction bound, average ([3]; Dose 976.562 nM): -0.0355 | Fraction bound ([3]; Dose 976.562 nM): -0.2804 and 0.0014 and 0.1724 | Fraction bound, average ([3]; Dose 1953.12 nM): 0.1140 | Fraction bound ([3]; Dose 1953.12 nM): 0.1616 and 0.0279 and 0.1524 | Fraction bound, average ([3]; Dose 3906.25 nM): 0.1368 | Fraction bound ([3]; Dose 3906.25 nM): 8.74e-5 and 0.2618 and 0.1487 | Fraction bound, average ([3]; Dose 7812.5 nM): -0.0582 | Fraction bound ([3]; Dose 7812.5 nM): -0.2477 and -0.0355 and 0.1087 | Fraction bound, average ([3]; Dose 15625 nM): 0.2874 | Fraction bound ([3]; Dose 15625 nM): 0.1991 and 0.1856 and 0.4774 | Fraction bound, average ([3]; Dose 31250 nM): 0.2894 | Fraction bound ([3]; Dose 31250 nM): 0.2431 and 0.4002 and 0.2248 | Fraction bound, average ([3]; Dose 62500 nM): 0.2591 | Fraction bound ([3]; Dose 62500 nM): 0.5108 and 0.3402 and -0.0738 | Fraction bound, average ([3]; Dose 125000 nM): 0.4857 | Fraction bound ([3]; Dose 125000 nM): 0.4645 and 0.6139 and 0.3786 | Fraction bound, average ([3]; Dose 250000 nM): 0.6790 | Fraction bound ([3]; Dose 250000 nM): 0.6147 and 0.6365 and 0.7858 | Fraction bound, average ([3]; Dose 500000 nM): 0.8538 | Fraction bound ([3]; Dose 500000 nM): 0.9212 and 0.7677 and 0.8725 | Fraction bound, average ([3]; Dose 1000000 nM): 0.8907 | Fraction bound ([3]; Dose 1000000 nM): 0.9649 and 0.9924 and 0.7150 | Kd ([3]; Kd (Fit Results), His-PARS1 FA/EA/RL, doses of the sheet in nM): 114000 nM | Kd ([3]; Kd, MT (FA/EA/RL), 5 mM ATP, mean ± SD, unit inferred): 114000 ± 57400 nM | Relative ratio of p-SMAD2/SMAD2, average ([4]; 0.2 μM): 0.76 | Relative ratio of p-SMAD2/SMAD2 ([4]; 0.2 μM): 0.61 and 0.94 and 0.72 | Relative ratio of p-SMAD2/SMAD2, average ([4]; 0.6 μM): 0.75 | Relative ratio of p-SMAD2/SMAD2 ([4]; 0.6 μM): 0.65 and 0.71 and 0.87 | Relative ratio of p-SMAD2/SMAD2, average ([4]; 2 μM): 0.70 | Relative ratio of p-SMAD2/SMAD2 ([4]; 2 μM): 0.48 and 0.69 and 0.92 | Relative ratio of p-SMAD2/SMAD2, average ([4]; 6 μM): 0.78 | Relative ratio of p-SMAD2/SMAD2 ([4]; 6 μM): 0.66 and 0.77 and 0.91 | Relative ratio of p-SMAD2/SMAD2, average ([4]; 20 μM): 0.41 | Relative ratio of p-SMAD2/SMAD2, average ([4]; 60 μM): 0.16 | SMAD2 phosphorylation ([4]; TGF‐β 2 ng/ml): reduced SMAD2 phosphorylation | IC50 ([5]; Homo sapiens, WI26VA4, read-out: IC50, collagen level): 1.49 µM | CC50/collagen IC50 ([5]; PARS1 FA/EA/RL cells): 7.88 | Relative (CC50)/(collagen IC50) ([5]; PARS1 FA/EA/RL cells, relative to EV): 0.63 | Collagen level, average [5, 6]: 96.80 % of control | Collagen level, single replicates [5, 6]: 101.27 % of control and 106.03 % of control and 102.09 % of control and 97.52 % of control and 107.38 % of control and 87.30 % of control and 97.03 % of control and 100.22 % of control and 82.11 % of control and 93.95 % of control and 95.06 % of control and 91.64 % of control | Collagen level, average [5, 7]: 91.15 % of control | Collagen level, single replicates [5, 7]: 92.43 % of control and 98.06 % of control and 99.31 % of control and 91.83 % of control and 92.72 % of control and 85.46 % of control and 90.73 % of control (2×) and 82.66 % of control and 81.56 % of control and 88.43 % of control and 99.91 % of control | Collagen level, average [5, 8]: 79.61 % of control | Collagen level, single replicates [5, 8]: 87.41 % of control and 88.18 % of control and 78.49 % of control and 71.44 % of control and 76.98 % of control and 80.63 % of control and 81.90 % of control and 76.13 % of control and 73.84 % of control and 86.07 % of control and 78.20 % of control and 75.99 % of control | Collagen level, average [5, 9]: 62.53 % of control | Collagen level, single replicates [5, 9]: 72.91 % of control and 64.62 % of control and 69.50 % of control and 60.49 % of control and 52.43 % of control and 63.48 % of control and 72.89 % of control and 52.77 % of control and 57.64 % of control and 59.18 % of control and 66.74 % of control and 57.76 % of control | Collagen level, average [5, 10]: 26.56 % of control | Collagen level, single replicates [5, 10]: 25.97 % of control and 27.35 % of control and 25.49 % of control and 26.93 % of control and 30.39 % of control and 26.86 % of control and 25.02 % of control and 29.58 % of control and 24.14 % of control and 24.80 % of control and 25.63 % of control and 26.57 % of control | Collagen level, average [5, 11]: 4.37 % of control | Collagen level, single replicates [5, 11]: 4.38 % of control and 3.58 % of control and 3.17 % of control and 5.34 % of control and 4.53 % of control and 5.67 % of control and 3.18 % of control and 3.93 % of control and 4.88 % of control and 4.67 % of control and 4.47 % of control and 4.59 % of control | Collagen level, average [5, 12]: 2.20 % of control | Collagen level, single replicates [5, 12]: 2.07 % of control and 2.38 % of control and 2.98 % of control and 3.14 % of control and 2.40 % of control and 2.09 % of control and 1.49 % of control and 1.46 % of control and 1.88 % of control (2×) and 2.96 % of control and 1.71 % of control | Collagen level, average [5, 13]: 1.94 % of control | Collagen level, single replicates [5, 13]: 2.11 % of control and 2.24 % of control and 1.83 % of control and 2.90 % of control and 1.40 % of control and 1.89 % of control and 1.44 % of control and 1.33 % of control and 1.75 % of control and 1.90 % of control and 2.31 % of control and 2.15 % of control | Collagen level, average [5, 14]: 1.36 % of control | Collagen level, single replicates [5, 14]: 1.67 % of control and 0.92 % of control and 0.84 % of control and 1.94 % of control | HillSlope, collagen level ([5]; WI-26 VA4 Flag-PARS1 FA/EA/RL, four-parameter fit): -1.331 | LogIC50, collagen level ([5]; WI-26 VA4 Flag-PARS1 FA/EA/RL, log of concentration in nM, four-parameter fit): 3.174
